Assay [1] has as its target T1, Caspase-3 (Homo sapiens) (UniProt P42574).
T1 sequence (whole entry): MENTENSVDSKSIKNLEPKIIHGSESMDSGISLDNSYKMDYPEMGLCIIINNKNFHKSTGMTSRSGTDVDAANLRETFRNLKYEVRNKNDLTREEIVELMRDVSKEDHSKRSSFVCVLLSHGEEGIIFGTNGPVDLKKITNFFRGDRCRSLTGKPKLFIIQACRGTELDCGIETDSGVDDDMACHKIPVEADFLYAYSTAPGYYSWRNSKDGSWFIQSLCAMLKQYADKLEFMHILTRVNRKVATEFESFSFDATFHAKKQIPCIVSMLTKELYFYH
As to the kind of experiment: Compound was tested for its inhibition against Caspase-3 at 50 uM; Not active.

Assay [2] deals with T2, Granzyme B (Homo sapiens, UniProt P10144). Briefly: Inhibition against human granzyme B.
A short description of assay [3]: Inhibition of CTL mediated apoptosis using humanNK-92 natural killer cells acting on target K-562 cells whose DNA had previously been labeled with [125I]-iododeoxyuridine. The class given is cell-based, Homo sapiens. To be noted: k562.
Assay [4] addresses T2, Granzyme B. Briefly: Compound was tested for its inhibition against human granzyme B; Not active.

We go through 19 compounds from ChEMBL document CHEMBL1134869, “Discovery of potent, selective human granzyme B inhibitors that inhibit CTL mediated apoptosis” (Bioorg Med Chem Lett, 2002).

Residues, ends and D or L forms follow the SMILES beside them. Some results are limits rather than exact numbers.

T2 sequence (P10144 whole entry): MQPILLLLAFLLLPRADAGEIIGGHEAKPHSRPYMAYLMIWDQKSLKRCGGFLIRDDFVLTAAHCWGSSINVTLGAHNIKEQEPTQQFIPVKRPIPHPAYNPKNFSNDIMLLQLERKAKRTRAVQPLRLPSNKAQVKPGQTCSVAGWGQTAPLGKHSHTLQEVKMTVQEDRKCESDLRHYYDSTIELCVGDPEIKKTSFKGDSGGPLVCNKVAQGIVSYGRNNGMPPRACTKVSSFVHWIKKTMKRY

Usually inhibition stands for the change of the read-out against control, counted positive when it falls. Usually Ki stands for a measure of affinity in units of concentration, obtained from inhibition or displacement. A lower Ki goes with a stronger hold on the target. Consider `CC[C@H](C)[C@@H](C(=O)N[C@H]1CCc2cccc3c2N(C1=O)[C@H](C(=O)NCCC(=O)O)C3)N(C)C(C)=O`, for which, in assay [1], the inhibition was < 50%. In assay [2], this compound came in with a Ki of 580 nM.
`CC[C@H](C)[C@@H](C(=O)N[C@H]1CCc2cccc3c2N(C1=O)[C@H](C(=O)N[C@@H](CC(=O)O)C(=O)c1nc2ccccc2s1)C3)N(C)C(C)=O` returned a Ki in assay [2] of 85 nM.
Regarding `CC[C@H](C)[C@@H](C(=O)N[C@H]1CCc2cccc3c2N(C1=O)[C@H](C(=O)NCc1cn[nH]n1)C3)N(C)C(C)=O`, the values for the Ki in assay [2] and in assay [3] were 38 nM and 30 nM, respectively.
Turning to `CC[C@H](C)[C@@H](C(=O)N[C@H]1CCc2cccc3c2N(C1=O)[C@H](C(=O)NCc1cc[nH]n1)C3)N(C)C(C)=O`, the Ki entry in assay [4] was “Not Active”.
For the compound `CC[C@H](C)[C@@H](C(=O)N[C@H]1CCc2cccc3c2N(C1=O)[C@H](C(=O)N[C@@H](CC(=O)O)C(=O)C(=O)OC)C3)N(C)C(C)=O`, the affinity in assay [2], expressed as Ki, was 16 nM.
In the case of `CC[C@H](C)[C@H](NC(C)=O)C(=O)N[C@@H](CCC(=O)O)C(=O)N1CCC[C@H]1C(=O)N[C@H](C=O)CC(=O)O` (Ac-IEPD-aldehyde), the Ki in assay [2] was found to be 80 nM.
Still for that read-out and setting: as for `CC[C@H](C)[C@@H](C(=O)N[C@H]1CCc2cccc3c2N(C1=O)[C@H](C(=O)NCc1nnn[nH]1)C3)N(C)C(C)=O`, the figure is 74 nM.
On to `CC[C@H](C)[C@@H](C(=O)N[C@H]1CCc2cccc3c2N(C1=O)[C@H](C(=O)NCc1nc[nH]n1)C3)N(C)C(C)=O`, for which the Ki result in assay [4] is listed as “Not Active”.
With `CC[C@H](C)[C@H](NC(C)=O)C(=O)Nc1cccn(CC(=O)N[C@H](C=O)CC(=O)O)c1=O`, the affinity in assay [2], expressed as Ki, was 133 nM.
Turning to `CC[C@H](C)[C@H](NC(C)=O)C(=O)NCC(=O)N1CCC[C@H]1C(=O)N[C@H](C=O)CC(=O)O` (Ac-IGPD-aldehyde), in assay [2], the Ki was 270 nM.
For `CC[C@H](C)[C@H](NC(=O)Cc1ccccc1)C(=O)N[C@H]1CCc2cccc3c2N(C1=O)[C@H](C(=O)NCc1cn[nH]c1)C3`, the Ki turned out to be 13 nM in assay [2] and 6.3 nM in assay [3].
With `CC[C@H](C)[C@H](NC(C)=O)C(=O)N[C@H]1CC[C@H]2CC[C@@H](C(=O)N[C@H](C=O)CC(=O)O)N2C1=O`, the Ki in assay [2] stood at 122 nM.
`CC[C@H](C)[C@H](NC(=O)Cc1csc2ccccc12)C(=O)N[C@H]1CCc2cccc3c2N(C1=O)[C@H](C(=O)NCc1cn[nH]c1)C3`: the values for the Ki in assay [2] and in assay [3] were 7 nM and 3.1 nM, respectively.
Regarding `CC[C@H](C)[C@H](NC(C)=O)C(=O)NCC(=O)N1c2ccccc2C[C@H]1C(=O)N[C@H](C=O)CC(=O)O`, the affinity in assay [2], expressed as Ki, was 13 nM. This counts as double-digit nanomolar.
For the compound `CC(C)[C@@H](C(=O)N[C@H]1CCc2cccc3c2N(C1=O)[C@H](C(=O)NCc1cn[nH]n1)C3)c1ccccn1`, the Ki in assay [2] amounted to 75 nM; in assay [3], 30 nM.
Turning to `CC[C@H](C)[C@@H](C(=O)N[C@H]1CCc2cccc3c2N(C1=O)[C@H](C(=O)N[C@@H](CC(=O)O)C(=O)c1nnc(-c2ccccc2)o1)C3)N(C)C(C)=O`, the Ki in assay [2] is 7 nM. This lies in the single-digit nanomolar range.
Still for that read-out and setting: the figure for `CC[C@H](C)[C@@H](C(=O)N[C@H]1CCc2cccc3c2N(C1=O)[C@H](C(=O)N[C@@H](CC(=O)O)C(=O)CSCc1ccc(F)cc1)C3)N(C)C(C)=O` is 2300 nM.
`CC[C@H](C)[C@@H](C(=O)N[C@H]1CCc2cccc3c2N(C1=O)[C@H](C(=O)NCc1cn[nH]c1)C3)N(C)C(C)=O`: in assay [4], the Ki entry is “Not Active”.
On to `CC[C@H](C)[C@@H](C(=O)N[C@H]1CCc2cccc3c2N(C1=O)[C@H](C(=O)NCc1cc(=O)[nH]o1)C3)N(C)C(C)=O`, for which the affinity in assay [2], expressed as Ki, was 360 nM. In other words, the sub-micromolar range.
